This note sets out measurements from US9212168B2 (priority 2011, dated 2015).

The subject of the assay is HCV genotype 1a replicon. Kind of assay: HCV genotype 1a replicon assay (NS3 protease activity readout). Format: cell-based, hepatitis C virus. The note with it: for Genotype 1a: HCV genotype 1a replicon; for EC50: Hepatitis C virus, read-out: Genotype 1a, HCV genotype 1a replicon. How it is done:
Assay 2: HCV Genotype 1a Replicon Assay
The HCV genotype 1a replicon cell line was obtained from Apath LLC (APC89; Huh7.5 cell background). This subgenomic replicon contains the N-terminus of the HCV core protein fused to the neomycin-resistance selectable marker. The EMCV IRES lies downstream and drives expression of the non-structural proteins NS3-NS5B. Compound potencies were determined using the NS3-specific protease activity in lysates as a measurement of compound inhibition of replicon levels.
Cells were grown at 37° C. in a 5% CO2 humidified incubator in DMEM (Invitrogen) with 10% FBS (HyClone), 1×NEAA (Invitrogen), 1× Pen-Strep (Invitrogen), and 850 μg/mL G418 (Invitrogen). On day 1 of the assay, cells were plated at 15,000 cells/well in black 96-well tissue culture plates (Costar) in 200 μL media lacking G418. Four hours later, once the cells had adhered, the media was removed and replaced with media (no G418) containing dose-responses of test compounds. Compounds were initially diluted in DMSO and then diluted another 200× in media to bring the final DMSO concentration down to 0.5%. The cells were incubated with test compounds for 48 or 72 hours. At the end of the incubation period, media and compound were removed from the plates.
To determine the NS3-specific protease activity in lysates, the cells were lysed at room temperature in 50 μL/well of 50 mM Hepes pH 7.5, 150 mM NaCl, 15% Glycerol, 0.15% Triton X-100, 10 mM DTT for 20 minutes with shaking. 50 μL of an NS3/4a protease-specific FRET substrate (Anaspec RET S1 Cat#22991) was then added to the wells at a final concentration of 15 μM. The plates were incubated at 37° C. for 20 minutes, which corresponds to a timepoint at which the protease activity is still in the linear phase. Protease activity was determined by measuring fluorescence (Excitation: 340 nm; Emission: 509 nm).
To analyze the data, the fluorescence was plotted vs. the compound concentration, and EC50 values were determined from a 4-parameter robust fit model using GraphPad Prism software.

Regarding `COC(=O)N[C@H](C(=O)N1C[C@@H](OC)C[C@H]1c1nc(-c2ccc(-c3ccc(C(=O)Nc4ccc(N5CCN(C(=O)C(C)(C)CO)C[C@H]5C)nc4)cc3OC(F)(F)F)cc2)c[nH]1)C1CCOCC1` [Example 22-14], the “Genotype 1a” value was “D (D represents pEC50>10 (EC50<0.1 nM))”. With `COC(=O)N[C@H](C(=O)N1C[C@@H](C)C[C@H]1c1nc(-c2ccc(-c3cc(Cl)c(NC(=O)c4ccc(N5CCN(C(=O)C6CC(CO)C6)C[C@H]5C)nc4)cc3OC(F)(F)F)cc2)c[nH]1)C(C)C` (some centres unmarked) [Example 12-55], the EC50 was < 0.1 nM. As to `COC(=O)N[C@H](C(=O)N1C[C@@H](C)C[C@H]1c1nc(-c2ccc(-c3ccc(C(=O)Nc4ccc(N5C[C@H](C)N(C(=O)C(C)(C)NC(=O)C6CC6)C[C@H]5C)nc4)cc3OC(F)(F)F)cc2)c[nH]1)C(C)C` [Example 4-39], the “Genotype 1a” value is “C (C represents pEC50 between and 9 and about 10, (EC50 between 1 nM and 0.1 nM))”. On to `COC(=O)N[C@@H](C(=O)N1C[C@@H](C)C[C@H]1c1nc(-c2ccc(-c3cc(Cl)c(NC(=O)c4ccc(N5CCN(C(=O)C(C)(C)C)C[C@H]5C)nc4)cc3C(F)(F)F)cc2)c[nH]1)C1CCCCC1` [Example 19-3], for which the “Genotype 1a” value was “A (A represents a pEC50 value between 6 and 8 (EC50 between 1 μM and 10 nM))”.

On to `COC(=O)N[C@H](C(=O)N1C[C@@H](C)C[C@H]1c1nc(-c2ccc(-c3cc(Cl)c(NC(=O)c4ccc(N5CCN(C(=O)[C@H]6CCCN6C(=O)OC)C[C@H]5C)nc4)cc3OC(F)(F)F)cc2)c[nH]1)C(C)C` [Example 1-37], for which the “Genotype 1a” value is recorded as “D (D represents pEC50>10 (EC50<0.1 nM))”. As for `COC(=O)N[C@H](C(=O)N1C[C@@H](C)C[C@H]1c1nc(-c2ccc(-c3cc(Cl)c(NC(=O)c4ccc(N5CCN(C(=O)C6CC6(Cl)Cl)C[C@H]5C)nc4)cc3OC(F)(F)F)cc2)c[nH]1)C(C)C` (single isomer, unassigned) [Example 1-56], the “Genotype 1a” value is “D (D represents pEC50>10 (EC50<0.1 nM))”. As to `COC(=O)N[C@H](C(=O)N1C[C@@H](C)C[C@H]1c1nc(-c2ccc(-c3ccc(C(=O)Nc4ccc(N5CCN(C(=O)C6CC6)C[C@H]5C)nc4)cc3OC(F)(F)F)cc2)c[nH]1)C(C)C` [Example 4-35], the “Genotype 1a” value was “C (C represents pEC50 between and 9 and about 10, (EC50 between 1 nM and 0.1 nM))”.

In the case of `COC(=O)NC(C(=O)N1CC(C)CC1c1nc(-c2ccc(-c3cc(Cl)c(NC(=O)c4ccc(N5CCN(C(=O)C(C)(C)C)CC5C)nc4)cc3C(F)(F)F)cc2)c[nH]1)C1CC(C)OC(C)C1` (centres unmarked) [Example 19-10], the “Genotype 1a” value is “A (A represents a pEC50 value between 6 and 8 (EC50 between 1 μM and 10 nM))”. In the case of `COC(=O)NC(C(=O)N1CC(OC)CC1c1nc(-c2ccc(-c3cc(Cl)c(NC(=O)c4ccc(N5CCN(C(=O)C(C)(C)CO)CC5C)nc4)cc3OC(F)(F)F)cc2)c[nH]1)C(C)(C)O` (centres unmarked) [Example 16-9], the “Genotype 1a” value is recorded as “D (D represents pEC50>10 (EC50<0.1 nM))”. As to `COC(=O)NC(C(=O)N1CC(OC)CC1c1nc(-c2ccc(-c3cc(F)c(NC(=O)c4ccc(N5CCN(C(=O)C(C)(C)CO)CC5C)nc4)cc3OC(F)(F)F)cc2)c[nH]1)C(C)O` (centres unmarked) [Example 16-12], the “Genotype 1a” value is “C (C represents pEC50 between and 9 and about 10, (EC50 between 1 nM and 0.1 nM))”. The same measure, in the same setting: the result for `COC(=O)NC(C(=O)N1CC(F)CC1c1nc(-c2ccc(-c3cc(Cl)c(NC(=O)c4ccc(N5CCN(C(=O)C(C)(C)C)CC5C)nc4)cc3OC(F)(F)F)cc2)c[nH]1)C1CCOCC1` (centres unmarked) [Example 29-1] reads “D (D represents pEC50>10 (EC50<0.1 nM))”. As for `COCC1(C(=O)N2CCN(c3ccc(C(=O)Nc4cc(OC(F)(F)F)c(-c5ccc(-c6c[nH]c([C@@H]7C[C@H](C)CN7C(=O)[C@@H](NC(=O)OC)C(C)C)n6)cc5)cc4Cl)cn3)[C@H](C)C2)CCC1` [Example 12-45], the EC50 is < 0.1 nM. As to `COC(=O)NC(C(=O)N1C[C@@H](C)C[C@H]1c1nc(-c2ccc(-c3c(F)cc(NC(=O)c4ccc(N5CCN(C(=O)C(C)(C)C)C[C@H]5C)nc4)cc3F)cc2)c[nH]1)C1CCS(=O)(=O)CC1` (some centres unmarked) [Example 21-2], the EC50 is 10 to 1000 nM. With `CNC(=O)N1CCC[C@@]1(C)C(=O)N1CCN(c2ccc(C(=O)Nc3cc(OC(F)(F)F)c(-c4ccc(-c5c[nH]c([C@@H]6C[C@H](C)CN6C(=O)[C@@H](NC(=O)OC)C(C)C)n5)cc4)cc3F)cn2)[C@H](C)C1` [Example 1-28], the “Genotype 1a” value is given as “D (D represents pEC50>10 (EC50<0.1 nM))”. The same measure, in the same setting: the result for `COC(=O)N[C@H](C(=O)N1C[C@@H](O)C[C@H]1c1nc(-c2ccc(-c3cc(F)c(NC(=O)c4ccc(N5CCN(C(=O)C(C)(C)C)C[C@H]5C)nc4)cc3OC(F)(F)F)cc2)c[nH]1)C(C)C` [Example 26-6] reads “C (C represents pEC50 between and 9 and about 10, (EC50 between 1 nM and 0.1 nM))”.

Turning to `COC(=O)N[C@H](C(=O)N1[C@@H]2C[C@@H]2C[C@H]1c1nc(-c2ccc(-c3cc(Cl)c(NC(=O)c4ccc(N5CCN(C(=O)C(C)(C)C)C[C@H]5C)nc4)cc3C(F)(F)F)cc2)c[nH]1)C(C)C` [Example 8-5], the EC50 fell in the range of 0.1 to 1 nM. Take `COC(=O)N[C@H](C(=O)N1C[C@@H](C)C[C@H]1c1nc(-c2ccc(-c3cc(Cl)c(NC(=O)c4ccc(N5CCN(C(=O)C6CCCN6C(N)=O)C[C@H]5C)nc4)cc3OC(F)(F)F)cc2)c[nH]1)C(C)C` (some centres unmarked) [Example 12-6]: the EC50 was < 0.1 nM. For the compound `CC[C@H](C)C(=O)N1CCN(c2ccc(C(=O)Nc3cc(OC(F)(F)F)c(-c4ccc(-c5c[nH]c([C@@H]6C[C@H](C)CN6C(=O)[C@@H](NC(=O)OC)C(C)C)n5)cc4)cc3Cl)cn2)[C@H](C)C1` [Example 1-69], the “Genotype 1a” value is “D (D represents pEC50>10 (EC50<0.1 nM))”.

In the case of `COC(=O)N[C@H](C(=O)N1C[C@@H](C)C[C@H]1c1nc(-c2ccc(-c3cc(Cl)c(NC(=O)c4ccc(N5CCN(C(=O)C(C)(C)N(C)C)C[C@H]5C)nc4)cc3OC(F)(F)F)cc2)c[nH]1)C(C)C` [Example 12-20], the EC50 was < 0.1 nM.

As for `COC(=O)N[C@H](C(=O)N1C[C@@H](C)C[C@H]1c1nc(-c2ccc(-c3cc(Cl)c(NC(=O)c4ccc(N5CCN(C(=O)[C@H]6CC6(C)C)C[C@H]5C)nc4)cc3C(F)(F)F)cc2)c[nH]1)C(C)C` [Example 1-31], the “Genotype 1a” value is “D (D represents pEC50>10 (EC50<0.1 nM))”.

Turning to `COC(=O)N[C@H](C(=O)N1C[C@@H](N(C)CCN)C[C@H]1c1nc(-c2ccc(-c3cc(Cl)c(NC(=O)c4ccc(N5CCN(C(=O)C(C)(C)C)C[C@H]5C)nc4)cc3OC(F)(F)F)cc2)c[nH]1)C(C)C` [Example 15-8], the EC50 is 0.1 to 1 nM. Consider `COC(=O)NC(C(=O)N1C[C@@H](C)C[C@H]1c1nc(-c2ccc(-c3ccc(C(=O)Nc4ccc(N5CCN(C(=O)C(C)(C)C)C[C@H]5C)nc4)c(Cl)c3OC(F)(F)F)cc2)c[nH]1)C1CCOCC1` (some centres unmarked) [Example 25-3], for which the EC50 was 0.1 to 1 nM. On to `COC(=O)NC(C(=O)N1C(C)CCC1c1nc(-c2ccc(-c3ccc(C(=O)Nc4ccc(N5CCN(C(=O)C6CC6(C)C)CC5C)nc4)cc3OC(F)(F)F)cc2)c(Cl)[nH]1)C(C)C` (centres unmarked) [Example 18-1], for which the “Genotype 1a” value was “C (C represents pEC50 between and 9 and about 10, (EC50 between 1 nM and 0.1 nM))”. For the compound `COC(=O)N[C@H](C(=O)N1[C@@H]2C[C@@H]2C[C@H]1c1nc(-c2ccc(-c3cc(Cl)c(NC(=O)c4ccc(N5CCN(C(=O)C6CC6)C[C@H]5C)nc4)cc3C(F)(F)F)cc2)c[nH]1)C(C)C` [Example 8-3], the EC50 is 0.1 to 1 nM.

In the case of `COC(=O)N[C@H](C(=O)N1C[C@@H](C)C[C@H]1c1nc(-c2ccc(-c3cc(F)c(NC(=O)c4ccc(N5CCN(C(=O)c6c[nH]cn6)C[C@H]5C)nc4)cc3C(F)(F)F)cc2)c[nH]1)C(C)C` [Example 1-29], the “Genotype 1a” value is recorded as “D (D represents pEC50>10 (EC50<0.1 nM))”.

Regarding `CNC(=O)N1CCC[C@@]1(C)C(=O)N1C[C@@H](C)N(c2ccc(NC(=O)c3ccc(-c4ccc(-c5c[nH]c([C@@H]6C[C@H](C)CN6C(=O)[C@@H](NC(=O)OC)C(C)C)n5)cc4)c(OC(F)(F)F)c3)cn2)C[C@@H]1C` [Example 4-9], the “Genotype 1a” value is “D (D represents pEC50>10 (EC50<0.1 nM))”. As for `COC(=O)N[C@H](C(=O)N1C[C@@H](C)C[C@H]1c1nc(-c2ccc(-c3cc(F)c(NC(=O)c4ccc(N5CCN(C(=O)C(C)(C)C)C[C@H]5C)nc4)cc3C(F)(F)F)cc2)c[nH]1)C(C)C` [Example 1-58], the “Genotype 1a” value is reported as “D (D represents pEC50>10 (EC50<0.1 nM))”. For `CCC(=O)NCC(C)(C)C(=O)N1CCN(c2ccc(C(=O)Nc3cc(OC(F)(F)F)c(-c4ccc(-c5c[nH]c([C@@H]6C[C@H](C)CN6C(=O)[C@@H](NC(=O)OC)C(C)C)n5)cc4)cc3Cl)cn2)[C@H](C)C1` [Example 12-41], the EC50 is 0.1 to 1 nM. As for `COC(=O)N[C@H](C(=O)N1C[C@@H](C)C[C@H]1c1nc(-c2ccc(-c3ccc(C(=O)Nc4ccc(N5C[C@H](C)N(C(=O)[C@@H](C)NC(=O)C6CC6)C[C@H]5C)nc4)cc3OC(F)(F)F)cc2)c[nH]1)C(C)C` [Example 4-40], the “Genotype 1a” value is given as “D (D represents pEC50>10 (EC50<0.1 nM))”.
